# pIC50: −log10 of the molar value. Read-outs that look alike come from different tables or passages of the source.
# Key:
# [1] = biological target: Human indoleamine 2,3-dioxygenasae (IDO) (Homo sapiens (Human), UniProt P14902); assay: Human indoleamine 2,3-dioxygenasae (IDO) enzyme assay; type: biochemical
# Text: Human indoleamine 2,3-dioxygenasae (IDO) enzyme assay: Human indoleamine 2,3-dioxygenasae (IDO) with an N-terminal His tag was expressed in E. coli and purified to homogeneity. IDO catalyzes the oxidative cleavage of the pyrrole ring of the indole nucleus of tryptophan to yield N′-formylkynurenine.
# IC50 data are from the IDO enzyme assay described above.
# [2] = system: CD3^+ cells in the peripheral blood; settings: previous studies; cited from earlier work
# [3] = system: CD3^+ cells in the peripheral blood; assay: Depletion of circulating T cells by FTY720 in tumor-bearing mice; type: in vivo; settings: 25 μg FTY-720 oral gavage on day 4, relative to vehicle-treated mice
# Experimental: Prior to the initiation of the therapy regimens (2.5 h pre-treatment), fingolimod (FTY-720, Enzo Life Sciences) was given to mice to inhibit lymphocyte migration out of lymphoid organs. FTY-720 stock solution (10 mg/ml in DMSO) was diluted to a 125 μg/ml concentration in PBS directly before administration. Mice received a dose of 25 μg FTY-720 or PBS containing DMSO as control via oral gavage. Therapy was initiated the same day (2.5 h delayed) and mice were analyzed on day 7 to perform the ex vivo functional assay as described above.
# To determine whether the presence of CD8^+ T cells showing high levels of IL-2 production and proliferation within the tumor microenvironment following effective immunotherapy doublets was a result of new T cell migration into the tumor site or reactivation of T cells already present, FTY720 treatment was utilized to block the sphingosine 1-phosphate receptor-1 and thereby prohibit T cells from exiting lymphoid organs. Previous studies have shown that the effect can be detected as soon as 2 h after initial administration and is stable for up to 4 days. FTY720 was administered or control vehicle to tumor-bearing mice on day 4, 2.5 h prior to the initiation of immunotherapies. […] Overall, a 90% reduction in circulating CD3^+ T cells in FTY720-treated mice was detected (FIG. 13A). […]
# B16-SIY cells = assay: Tumor growth inhibition (TGI), unaffected fraction synergy analysis of combination therapies; type: in vivo, mice
# Experimental: Treatment was initiated on day 4 post tumor inoculation with the following regimens for each drug. αCTLA-4 antibody (clone UC10-4F10-11, Bio-X-Cell) was given i.p. on day 4, 7 and 10 at a dose of 100 μg/mouse. αPD-L1 antibody (clone 10F.9G2, Bio-X-Cell) was given i.p. (100 μg/mouse) every other day starting on day 4 ending on day 16 post tumor inoculation. IDOi (INCB23843, Incyte Corporation) was dissolved in 0.5% methylcellulose and administered at 300 mg/kg po QD on a 5 days on/2 days off schedule starting on day 4. In the case of functional experiments with an earlier endpoint, treatment regimens were carried out as described until the day of T cell analysis. A comparison between IDOi and IDOc (INCB24360, Incyte Corporation) was perfomed according to the treatment regime described above. Tumor outgrowth was followed starting day 7 onwards and is depicted in combination with anti-CTLA4 (FIG. 18A) or anti-PD-L1 (FIG. 18B). N=5 mice per group, and a two-way Anova test was used to determine significance between the groups.
# Treatment was administered in the same fashion as described for FIG. 9, with the exception that IDOi (INCB23843) was replaced by IDOc (INCB24360) in the indicated groups. […] Synergy analysis was performed with day 15 data and with day 23 data. Actual tumor growth inhibition (TGI) is the experimental TGI seen in this experiment for the combinations, and predicted TGI is the TGI that would have been expected for a purely additive combination effect from the performance of the individual agents in this experiment. Actual TGIs higher than predicted TGIs reflect better than additive (synergistic) data.
# Sequence of Human indoleamine 2,3-dioxygenasae (IDO) (P14902 whole entry): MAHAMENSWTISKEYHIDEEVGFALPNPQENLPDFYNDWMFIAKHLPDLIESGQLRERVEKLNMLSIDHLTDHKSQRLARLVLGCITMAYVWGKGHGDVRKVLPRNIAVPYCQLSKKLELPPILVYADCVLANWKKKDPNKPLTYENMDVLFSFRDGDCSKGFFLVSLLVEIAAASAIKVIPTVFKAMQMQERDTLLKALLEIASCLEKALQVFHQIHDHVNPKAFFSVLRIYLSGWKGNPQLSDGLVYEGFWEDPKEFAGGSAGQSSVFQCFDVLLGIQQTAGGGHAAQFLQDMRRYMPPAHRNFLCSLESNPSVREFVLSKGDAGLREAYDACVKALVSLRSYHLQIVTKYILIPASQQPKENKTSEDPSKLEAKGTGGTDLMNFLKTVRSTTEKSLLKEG
SMILES,pIC50 ([1]; read-out: IDO IC50),also measured
"CS(=O)(=O)NCCCNc1nonc1C(=NO)Nc1ccc(F)c(Cl)c1 [Example 8, N-(3-Chloro-4-fluorophenyl)-N′-hydroxy-4-({3-[(methylsulfonyl)amino]propyl}amino)-1,2,5-oxadiazole-3-carboximidamide]",> 6.70,
"NS(=O)(=O)NCCNc1nonc1C(=NO)Nc1cccc(C(F)(F)F)c1 [Example 13, 4-({2-[(Aminosulfonyl)amino]ethyl}amino)-N′-hydroxy-N-[3-(trifluoromethyl)phenyl]-1,2,5-oxadiazole-3-carboximidamide]",> 6.30,
"CS(=O)(=O)NCCNc1nonc1C(=NO)Nc1cccc(C(F)(F)F)c1 [Example 14, N′-Hydroxy-4-({2-[(methylsulfonyl)amino]ethyl}amino)-N-[3-(trifluoromethyl)phenyl]-1,2,5-oxadiazole-3-carboximidamide]",> 6.70,
"NS(=O)(=O)NCCCNc1nonc1C(=NO)Nc1cccc(C(F)(F)F)c1 [Example 15, 4-({3-[(Aminosulfonyl)amino]propyl}amino)-N′-hydroxy-N-[3-(trifluoromethyl)phenyl]-1,2,5-oxadiazole-3-carboximidamide]",> 6.70,
"CS(=O)(=O)NCCCNc1nonc1C(=NO)Nc1cccc(C(F)(F)F)c1 [Example 16, N′-Hydroxy-4-({3-[(methylsulfonyl)amino]propyl}amino)-N-[3-(trifluoromethyl)phenyl]-1,2,5-oxadiazole-3-carboximidamide]",> 6.70,
"Cc1cc(NC(=NO)c2nonc2NCCNS(C)(=O)=O)ccc1F [Example 17, N-(4-Fluoro-3-methylphenyl)-N′-hydroxy-4-({2-[(methylsulfonyl)amino]ethyl}amino)-1,2,5-oxadiazole-3-carboximidamide]",> 6.30,
"N#Cc1cc(NC(=NO)c2nonc2NCCNS(N)(=O)=O)ccc1F [Example 18, 4-({2-[(Aminosulfonyl)amino]ethyl}amino)-N-(3-cyano-4-fluorophenyl)-N′-hydroxy-1,2,5-oxadiazole-3-carboximidamide]",> 6.12,
"CS(=O)(=O)NCCNc1nonc1C(=NO)Nc1ccc(F)c(C#N)c1 [Example 19, N-(3-Cyano-4-fluorophenyl)-N′-hydroxy-4-({2-[(methylsulfonyl)amino]ethyl}amino)-1,2,5-oxadiazole-3-carboximidamide]",> 6.30,
"NS(=O)(=O)NCCNc1nonc1C(=NO)NCc1cc(Br)co1 [Example 20, 4-({2-[(Aminosulfonyl)amino]ethyl}amino)-N-[(4-bromo-2-furyl)methyl]-N′-hydroxy-1,2,5-oxadiazole-3-carboximidamide]",> 6.30,
"NS(=O)(=O)NCCNc1nonc1C(=NO)NCc1cc(Cl)co1 [Example 21, 4-({2-[(Aminosulfonyl)amino]ethyl}amino)-N-[(4-chloro-2-furyl)methyl]-N′-hydroxy-1,2,5-oxadiazole-3-carboximidamide]",> 6.12,
"CN(CCNc1nonc1/C(=N/O)Nc1ccc(F)c(Cl)c1)S(N)(=O)=O [Example 24, 4-(2-[(Aminosulfonyl)(methyl)amino]ethylamino)-N-(3-chloro-4-fluorophenyl)-N′-hydroxy-1,2,5-oxadiazole-3-carboximidamide]",> 6.70,"pIC50 ([1]; average of five lots, read-out: IC50): 6.88"
"CCCCCCCCc1ccc(CCC(N)(CO)CO)cc1 [FTY720, fingolimod]",,time after initial administration at which the effect can be detected [2]: 2 h; time for which the effect is stable [2]: up to 4 days; reduction in circulating CD3^+ T cells [3]: 90%
NS(=O)(=O)NCCNc1nonc1/C(=N/O)Nc1ccc(F)c(Br)c1 [IDOc],,"Actual TGI (B16-SIY cells; Day 15 (end of dosing), combination with anti CTLA4): 74%; Actual TGI (B16-SIY cells; Day 15 (end of dosing), combination with antiPDL1): 81%; Predicted TGI (B16-SIY cells; Day 15, combination with anti CTLA4, expected for a purely additive effect from the individual agents): 66%; Predicted TGI (B16-SIY cells; Day 15, combination with antiPDL1, expected for a purely additive effect): 24%; Actual TGI (B16-SIY cells; Day 23 (last day of vehicles), combination with anti CTLA4): 93%; Actual TGI (B16-SIY cells; Day 23 (last day of vehicles), combination with antiPDL1): 82%; Predicted TGI (B16-SIY cells; Day 23, combination with anti CTLA4, expected for a purely additive effect): 65%; Predicted TGI (B16-SIY cells; Day 23, combination with antiPDL1, expected for a purely additive effect): 35%"

# Now from value to molecule, other results behind:
pIC50 ([1]; read-out: IDO IC50),SMILES,also measured
> 7.00,"NS(=O)(=O)NCCCNc1nonc1C(=NO)Nc1ccc(F)c(Br)c1 [Example 3, 4-({3-[(Aminosulfonyl)amino]propyl}amino)-N-(3-bromo-4-fluorophenyl)-N′-hydroxy-1,2,5-oxadiazole-3-carboximidamide]",
> 7.00,"CS(=O)(=O)NCCCNc1nonc1C(=NO)Nc1ccc(F)c(Br)c1 [Example 4, N-(3-Bromo-4-fluorophenyl)-N′-hydroxy-4-({3-[(methylsulfonyl)amino]propyl}amino)-1,2,5-oxadiazole-3-carboximidamide]",
> 6.70,"NS(=O)(=O)NCCNc1nonc1C(=NO)Nc1ccc(F)c(Cl)c1 [Example 5, 4-({2-[(Aminosulfonyl)amino]ethyl}amino)-N-(3-chloro-4-fluorophenyl)-N′-hydroxy-1,2,5-oxadiazole-3-carboximidamide]",
> 6.70,"CS(=O)(=O)NCCNc1nonc1C(=NO)Nc1ccc(F)c(Cl)c1 [Example 6, N-(3-Chloro-4-fluorophenyl)-N′-hydroxy-4-({2-[(methylsulfonyl)amino]ethyl}amino)-1,2,5-oxadiazole-3-carboximidamide]",
> 6.70,"NS(=O)(=O)NCCCNc1nonc1C(=NO)Nc1ccc(F)c(Cl)c1 [Example 7, 4-({3-[(Aminosulfonyl)amino]propyl}amino)-N-(3-chloro-4-fluorophenyl)-N′-hydroxy-1,2,5-oxadiazole-3-carboximidamide]",
> 7.00,"NS(=O)(=O)NCCNc1nonc1C(=NO)Nc1ccc(F)c(C(F)(F)F)c1 [Example 9, 4-({2-[(Aminosulfonyl)amino]ethyl}amino)-N-[4-fluoro-3-(trifluoromethyl)phenyl]-N′-hydroxy-1,2,5-oxadiazole-3-carboximidamide]",
> 7.00,"CS(=O)(=O)NCCNc1nonc1C(=NO)Nc1ccc(F)c(C(F)(F)F)c1 [Example 10, N-[4-Fluoro-3-(trifluoromethyl)phenyl]-N′-hydroxy-4-({2-[(methylsulfonyl)amino]ethyl}amino)-1,2,5-oxadiazole-3-carboximidamide]",
> 7.00,"NS(=O)(=O)NCCCNc1nonc1C(=NO)Nc1ccc(F)c(C(F)(F)F)c1 [Example 11, 4-({3-[(Aminosulfonyl)amino]propyl}amino)-N-[4-fluoro-3-(trifluoromethyl)phenyl]-N′-hydroxy-1,2,5-oxadiazole-3-carboximidamide]",
> 7.00,"CS(=O)(=O)NCCCNc1nonc1C(=NO)Nc1ccc(F)c(C(F)(F)F)c1 [Example 12, N-[4-Fluoro-3-(trifluoromethyl)phenyl]-N′-hydroxy-4-({3-[(methylsulfonyl)amino]propyl}amino)-1,2,5-oxadiazole-3-carboximidamide]",
